Literature values as cited in US9314435B2, “Stable formulations of antiplatelet agents, omega-3 fatty acids and amylose in soft gelatin capsules” (ALTERGON S.A., priority 2011, dated 2016).

Conditions: 325 mg on alternate days

Structure (SMILES): CC(=O)Oc1ccccc1C(=O)O [ASA, Acetylsalicylic acid]
- reduction of the risk of the first heart attack: 44%
